Data as given in patent publication US12440496B2, “Natriuretic peptide receptor a agonists useful for the treatment of cardiometabolic diseases, kidney disease and diabetes” (Merck Sharp & Dohme LLC, priority 2019, dated 2025).
Counter-ions that a name gives are not always drawn.

molecular target: T1, hNPRA (Homo sapiens, UniProt P16066); experiment: NPRA Functional Cell Assay (cGMP HTRF, NPRA HEK JumpIn stable cells); format: cell-based; conditions: cGMP production, 1 hour at 37° C., 10-point dose response
T1 construct: expressed in transfected cells
T1 sequence (P16066 33-1061): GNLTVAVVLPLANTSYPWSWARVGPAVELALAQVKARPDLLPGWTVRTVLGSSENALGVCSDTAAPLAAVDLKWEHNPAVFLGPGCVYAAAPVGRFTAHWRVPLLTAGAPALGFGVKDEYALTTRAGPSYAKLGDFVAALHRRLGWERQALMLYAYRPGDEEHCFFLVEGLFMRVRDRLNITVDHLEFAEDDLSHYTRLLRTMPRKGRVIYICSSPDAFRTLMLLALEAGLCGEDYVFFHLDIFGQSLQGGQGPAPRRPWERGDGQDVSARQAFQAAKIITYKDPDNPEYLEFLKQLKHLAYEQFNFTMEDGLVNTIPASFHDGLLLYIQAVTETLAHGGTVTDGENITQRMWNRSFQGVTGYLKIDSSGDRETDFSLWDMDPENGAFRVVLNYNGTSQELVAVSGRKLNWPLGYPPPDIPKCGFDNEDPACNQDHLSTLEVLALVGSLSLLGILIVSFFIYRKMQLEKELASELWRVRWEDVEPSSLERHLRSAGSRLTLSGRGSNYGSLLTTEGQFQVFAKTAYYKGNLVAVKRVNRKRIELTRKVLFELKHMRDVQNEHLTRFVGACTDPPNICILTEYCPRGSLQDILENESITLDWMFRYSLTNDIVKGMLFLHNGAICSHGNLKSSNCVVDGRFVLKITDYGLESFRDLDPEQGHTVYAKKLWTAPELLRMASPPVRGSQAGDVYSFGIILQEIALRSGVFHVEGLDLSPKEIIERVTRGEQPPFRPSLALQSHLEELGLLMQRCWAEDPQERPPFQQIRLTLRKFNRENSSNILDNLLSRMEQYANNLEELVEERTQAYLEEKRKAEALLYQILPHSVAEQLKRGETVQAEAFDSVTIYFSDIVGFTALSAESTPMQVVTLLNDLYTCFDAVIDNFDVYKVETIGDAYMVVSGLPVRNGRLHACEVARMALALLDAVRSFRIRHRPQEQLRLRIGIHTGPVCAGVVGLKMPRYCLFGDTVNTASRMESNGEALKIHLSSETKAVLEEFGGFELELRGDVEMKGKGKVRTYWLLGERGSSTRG
In short: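 cGMP HTRF read-out after 1 hour compound treatment at 37° C. of human NPRA-expressing HEK JumpIn cells, 1500 cells/well, in buffer with phosphodiesterase inhibitors IBMX and RO20 (100 uM each). Signal converted to [cGMP] by calibration curve; EC50s fitted by 4-parameter logistic; 50 nM h-ANP as positive response.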

Structure (SMILES) | EC50 [µM]
CC(C)(C)[C@H]1CCc2nc3sc(C(=O)N[C@H](CCN4CCC(O)CC4)c4ccc(-c5cc[n+]([O-])nc5)cc4)nc3cc2C1 (racemic) [Example 163, rac-(7S)-7-tert-butyl-N-[rac-(1R)-3-(4-hydroxypiperidin-1-ium-1-yl)-1-[4-(1-oxidopyridazin-1-ium-4-yl)phenyl]propyl]-5,6,7,8-tetrahydrothiazolo[5,4-b]quinoline-2-carboxamide; 2,2,2-trifluoroacetate] | 0.357
CN(CC[C@@H](NC(=O)c1nc2cc3c(nc2s1)CC[C@H](C(C)(C)C)C3)c1ccc(NS(=O)(=O)N(C)C)nc1)CC1(O)CC1 (racemic) [Example 209, (1-hydroxycyclopropyl)methyl-methyl-[rac-(3R)-3-[6-(dimethylsulfamoylamino)-3-pyridyl]-3-[[rac-(7S)-7-tert-butyl-5,6,7,8-tetrahydrothiazolo[5,4-b]quinoline-2-carbonyl]amino]propyl]ammonium; 2,2,2-trifluoroacetate] | 0.735
CC(C)(C)[C@H]1CCc2nc3sc(C(=O)N[C@H](CCNC4CCNC(=O)C4)c4ccc(-c5ccc(=O)[nH]c5)cc4)cc3cc2C1 (mixture of isomers) [Example 54, (2-oxo-4-piperidyl)-[rac-(3R)-3-[4-(6-oxo-1H-pyridin-3-yl)phenyl]-3-[rac-(6S)-6-tert-butyl-5,6,7,8-tetrahydrothieno[2,3-b]quinoline-2-carbonyl]amino]propyl] ammonium;formate] | 0.758
CC(C)(C)[C@H]1CCc2nc3sc(C(=O)N[C@H](CCN4CCC(C(=O)O)CC4)c4ccccc4)cc3cc2C1 [Example 258, 1-[(3R)-3-({[(6S)-6-tert-butyl-5,6,7,8-tetrahydrothieno[2,3-b]quinolin-2-yl]carbonyl}amino)-3-phenylpropyl]piperidine-4-carboxylic acid] | 2.08
CC(C)(C)[C@H]1CCc2nc3sc(C(=O)N[C@H](CCN4CCC(O)CC4)c4cccc(C(=O)NCC5CCNC5)c4)nc3cc2C1 (mixture of isomers) [Example 152, rac-(7S)-7-tert-butyl-N-[rac-(1R)-3-(4-hydroxy-1-piperidyl)-1-[3-(pyrrolidin-3-ylmethylcarbamoyl)phenyl]propyl]-5,6,7,8-tetrahydrothiazolo[5,4-b]quinoline-2-carboxamide] | 0.686
CC(C)(C)[C@H]1CCc2nc3sc(C(=O)N[C@H](CCN4CCC(O)CC4)c4ccc(-c5cnoc5)cc4)nc3cc2C1 (racemic) [Example 176, rac-(7S)-7-tert-butyl-N-[rac-(1R)-3-(4-hydroxypiperidin-1-ium-1-yl)-1-(4-isoxazol-4-ylphenyl)propyl]-5,6,7,8-tetrahydrothiazolo[5,4-b]quinoline-2-carboxamide; 2,2,2-trifluoroacetate] | 1.03
CN(C)CC[C@@H](NC(=O)c1nc2cc3c(nc2s1)CC[C@H](C(C)(C)C)C3)c1cccc(C(=O)NC2CN(C)C2)c1 (racemic) [Example 86, rac-(7S)-7-tert-butyl-N-[rac-(1R)-3-(dimethyl-amino)-1-[3-[(1-methylazetidin-3-yl)carbamoyl]phenyl]propyl]-5,6,7,8-tetrahydrothiazolo[5,4-b] quinoline-2-carboxamide] | 0.183
CC(C)(C)[C@H]1CCc2nc3sc(C(=O)N[C@H](CCN4CCC(O)CC4)c4ccc(-c5ncns5)cc4)nc3cc2C1 (racemic) [Example 169, rac-(7S)-7-tert-butyl-N-[rac-(1R)-3-(4-hydroxy-1-piperidyl)-1-[4-(1,2,4-thiadiazol-5-yl)phenyl]propyl]-5,6,7,8-tetrahydrothiazolo[5,4-b]quinoline-2-carboxamide] | 0.793
CC(C)(C)[C@H]1CCc2nc3sc(C(=O)N[C@H](CCN[C@H]4CCCC(F)(F)[C@@H]4O)c4cccc(NS(C)(=O)=O)c4)cc3cc2C1 (racemic) [Example 24, ammonium; methylsulfony 1-[3-[rac-(1R)-1-[[rac-(6S)-6-tert-buty1-5,6,7,8-tetrahydrothieno[2,3-b]quinoline-2-carbonyl]amino]-3-[[rac-(1S,2R)-3,3-difluoro-2-hydroxy-cyclohexyl]amino]propyl]phenyl]azanide] | 1.97
CN1CCC(CNC(=O)c2cccc([C@@H](CCN3CCC(O)CC3)NC(=O)c3nc4cc5c(nc4s3)CC[C@H](C(C)(C)C)C5)c2)C1 (mixture of isomers) [Example 142, rac-(7S)-7-tert-butyl-N-[rac-(1R)-3-(4-hydroxy-1-piperidyl)-1-[3-[(1-methylpyrrolidin-3-yl)methylcarbamoyl]phenyl]propyl]-5,6,7,8-tetrahydrothiazolo[5,4-b]quinoline-2-carboxamide] | 0.258
CN(C)S(=O)(=O)Nc1ccc([C@@H](CCN2CCC(O)CC2)NC(=O)c2nc3cc4c(nc3s2)CC[C@H](C(C)(C)C)C4)cc1F [Example 226, (S)-7-(tert-butyl)-N-((R)-1-(4-((N,N-dimethylsulfamoyl)amino)-3-fluorophenyl)-3-(4-hydroxypiperidin-1-yl)propyl)-5,6,7,8-tetrahydrothiazolo[5,4-b]quinoline-2-carboxamide] | 0.677
CC(C)(C)[C@H]1CCc2nc3sc(C(=O)N[C@H](CCN[C@@H]4C[C@H](CO)[C@@H](O)[C@H]4O)c4ccc(-c5ccc(=O)[nH]c5)cc4)cc3cc2C1 (racemic) [Example 62, [rac-(1R,2S,3R,4R)-2,3-dihydroxy-4-(hydroxymethyl)cyclopentyl]-[rac-(3R)-3-[4-(6-oxo-1H-pyridin-3-yl)phenyl]-3-[rac-(6S)-6-tert-butyl-5,6,7,8-tetrahydrothieno[2,3-b]quinoline-2-carbonyl]amino]propyl] ammonium;formate] | 1.13
CC(C)(C)[C@H]1CCc2nc3sc(C(=O)N[C@H](CCN4C[C@H](O)C[C@H]4CO)c4ccc(-c5ccc(=O)[nH]c5)cc4)cc3cc2C1 (racemic) [Example 71, rac-(6S)-6-tert-butyl-N-[rac-(1R)-1-[4-(6-oxo-1H-pyridin-3-yl)phenyl]-3-[rac-(2S,4R)-4-hydroxy-2-(hydroxymethyl)pyrrolidin-1-ium-1-yl]propyl]-5,6,7,8-tetrahydrothieno[2,3-b]quinoline-2-carboxamide;formate] | 1.99
CC(C)(C)[C@H]1CCc2nc3sc(C(=O)N[C@H](CCN4CCC(O)CC4)c4ccc(-c5cn[nH]c5)cc4)nc3cc2C1 (racemic) [Example 80, rac-(7S)-7-tert-butyl-N-[rac-(1R)-3-(4-hydroxypiperidin-1-ium-1-yl)-1-[4-(1H-pyrazol-4-yl)phenyl]propyl]-5,6,7,8-tetrahydrothiazolo[5,4-b]quinoline-2-carboxamide; formate] | 0.753
CC(C)(C)[C@H]1CCc2nc3sc(C(=O)N[C@H](CCN4CCC[C@@H]4CO)c4ccccc4)cc3cc2C1 [Example 262, (6S)-6-tert-butyl-N-{(1R)-3-[(2R)-2-(hydroxymethyl)pyrrolidin-1-yl]-1-phenylpropyl}-5,6,7,8-tetrahydrothieno[2,3-b]quinoline-2-carboxamide] | 6.32
CC(C)(C)[C@H]1CCc2nc3sc(C(=O)N[C@H](CCN4CCC(F)CC4)c4cccc(NS(C)(=O)=O)c4)cc3cc2C1 (racemic) [Example 14, ammonium; methylsulfonyl-[3-[rac-(1R)-3-(4-fluoro-1-piperidyl)-1-[[rac-(6S)-6-tert-butyl-5,6,7,8-tetrahydrothieno[2,3-b]quinoline-2-carbonyl]amino]propyl]phenyl] azanide] | 0.834
CCN(CC)CC[C@@H](NC(=O)c1nc2cc3c(nc2s1)CC[C@H](C(C)(C)C)C3)c1ccc(-c2cnc(O)c(F)c2)cc1 (racemic) [Example 202, diethyl-[rac-(3R)-3-[4-(5-fluoro-6-hydroxy-3-pyridyl)phenyl]-3-[[rac-(7S)-7-tert-butyl-5,6,7,8-tetrahydrothiazolo[5,4-b]quinoline-2-carbonyl]amino]propyl]ammonium; formate] | 0.514
CN1CC(NCC[C@@H](NC(=O)c2cc3cc4c(nc3s2)CC[C@H](C(C)(C)C)C4)c2ccc(-c3ccc(=O)[nH]c3)cc2)C1 (racemic) [Example 64, (1-methylazetidin-3-yl)-[rac-(3R)-3-[4-(6-oxo-1H-pyridin-3-yl)phenyl]-3-[[rac-(6S)-6-tert-butyl-5,6,7,8-tetrahydrothieno[2,3-b]quinoline-2-carbonyl]amino]propyl] ammonium;formate] | 1.23
